Assay results taken from patent US20150359798A1, “PIPERAZINYL DERIVATIVE REDUCES HIGH-FAT DIET-INDUCED ACCUMULATION OF FAT IN THE LIVERS, […]” (priority 2011, published 2015).

Legend:
ABCA1 = ABCA1 expression in liver of HFD mice (8 weeks); type: in vivo; settings: animals treated with HFD
mice fed a HFD = assay: HFD-fed mice, 14-week experiment: body weight, liver morphology, H&E, oil globulets; type: in vivo
Experimental: (§1) In the 14-week experiment, mice were fed a HFD from week 1 to week 14. During the 3 month experiments, KMUP-1 HCl (2.5 mg) was added to 200 ml tap water and) and drink for 14 weeks or for the last 6 weeks on mice or obese mice fed HFD, separately. 5 mice had free access to drinking water from week 1 to week 14 (protective group) or from week 8 to week 14 (treatment group). Tap water was used to normalize mineral nutrition (Scheme A).
The diameter of the white bar in the photograph was standardized at 100 μM for measuring the specific diameter of oil globulets in a whole liver slice, observed by microscope, with the aid of Powerpoint PC computer software (Microsoft®, USA) and printed out by a Hewlett-Packard® printer (USA). An increase in oil globulet diameter and cell number indicated increasing liver steatosis, i.e. steaotohepatitis. In contrast, decrease in diameter and the number of fat cells indicated the inhibition of steaotohepatitis. […] Hematoxylin-eosin (H&E) and […] staining of liver were used to assess oil globulet numbers under a microscope.
Mice liver and epididymal fat pads were cut and soaked in formalin, dehydrated through graded alcohols and embedded in paraffin. Specimens of liver tissues and epididymal fat pads fixed with formalin (4%) were embedded in paraffin for one hour at 4° C., cut into […] sections, and subjected to H&E staining before examination by light microscope. In heart tissues, the 4-μm-thick paraffin sections were cut from paraffin-embedded tissue blocks and de-paraffinized by immersion in xylene and rehydrated. The slices were then dyed with H&E. After gently rinsing with water, each slide was dehydrated through graded alcohols and finally soaked in xylene twice.
Hematoxylin-eosin (H&E) and IHC staining of liver were used to assess oil globulet numbers under a microscope. A 100 μM white bar was used to determine oil globule sizes in the liver. Oil globulets in a cell were counted from larger to smaller until size limitations were reached. Increases of oil globulet diameter and number indicated increasing liver steatosis. In contrast, a decrease in oil globulet diameters and numbers could indicate the inhibition of liver steatosis. Oil globulets were measured using a Nikon Eclipse TE200-S microscope, aided by Powerpoint computer software (Microsoft®) and printed by a HP® printer to measure the diameter and number of oil globulets on paper. Counting: of oil globules was performed from larger to smaller ones until the observation reached its limit.

SR-B1 = assay: HFD-induced hepatic SR-B1 expression (14-week experiment); type: in vivo, mice; settings: drinking KMUP-1
Experimental: as §1
For the expression of SR-B1, HMGR, PPARγ and ROCK isolated liver tissues were cut into small chips and placed into an extraction buffer (Tris 10 mM, pH 7.0, NaCl 140 mM, PMSF 2 mM, DTT 5 mM, NP-40 0.5%, pepstatin A 0.05 mM and leupeptin 0.2 mM) for hepatic protein extraction, and centrifuged at 20,000 g for 30 minutes. The obtained protein extract was boiled to a ratio of 4:1 with a sample buffer (Tris 100 mM, pH 6.8, glycerol 20%, SDS 4% and bromophenol blue 0.2%). Electrophoresis was performed using 10% SDS-polyacrylamide gel (1 hour, 100 V, 40 mA, 20 μg protein per lane).
Separated proteins, after 3 repeated centrifugations to discard up-layer tissue lipid inpurity, were transferred to PVDF membranes treated with 5% fat-free milk powder to block the nonspecific IgGs (90 minutes, 100 V) and incubated for 1 hour with specific protein antibody. The blot was then incubated with anti-mouse or anti-goat IgG linked to alkaline phosphatase (1:1000) for 1 hour.

MMP-9 = assay: IHC staining of MMP-9 in steatohepatitis liver; type: in vivo, mice; settings: treatment and protection groups
Experimental: as §1
(§2) For IHC of MMP-9/TNFα, HSL/p-HSL/ATGL and eNOS/IL-10, antigen retrieval of de-paraffinated sections was performed in Dako target retrieval solution, pH 9.0, in a vegetable steamer followed by the quenching of endogenous peroxidase activity with 3.0% H2O2 in methanol. Sections were then incubated with specific primary antibodies overnight at 4° C. in a humidified chamber. The antibodies used included rabbit polyclonal anti-eNOS (1:50 dilution) (Abcam, Cambridge, UK) or rabbit monoclonal anti-cleaved caspase-3 (1:50 dilution) (Cell Signaling, USA). The sections were then examined using a DAKO REAL EnVision™ Detection System kit (DAKO, Carpinteria, Calif.) and counterstained with hematoxylin. Images were obtained through a Nikon Eclipse TE200-S microscope.

HSL [1] = assay: IHC staining of HSL in steatohepatitis liver; type: in vivo, mice; settings: after treatment or protection
Experimental: as §1, §2

eNOS [2] = assay: IHC staining of eNOS in epididymal fat pads; type: in vivo, mice; settings: protection, 2.5 mg/kg/day
Experimental: as §2

TNF-α = assay: IHC staining of TNF-α in epididymal fat pads; type: in vivo, mice; settings: protection, 2.5 mg/kg/day
Experimental: as §2

HSL [3] = assay: IHC staining of HSL in epididymal fat pads; type: in vivo, mice; settings: protection, 2.5 mg/kg/day
Experimental: as §2

HMG CoA reductase = HMG CoA reductase expression in HepG2 cells (Western blotting); type: cell-based
Experimental: The HepG2 hepatoma cell line was purchased from the American Type Culture Collection (ATCC; Manassas, Va., U.S.A.). Cells were cultured in DMEM. The culture media was supplemented with 5% heat-Inactivated FBS, penicillin (100 U/mL) and streptomycin (100 μg/mL). Cells were grown in a humidified atmosphere containing 5% CO2 at 37° C., in which the oxygen tension in the incubator was held at 140 mmHg (20% O2, v/v; normoxic conditions).
(§3) HepG2 cells were treated with various concentrations of drugs for 24 hours. Reactions were terminated by washing twice with cold PBS, and the cells were then harvested, Proteins in the whole-cell lysate were homogenized in an ice-cold lysis buffer and a protease inhibitor (Sigma-Aldrich, St. Louis, Mo., U.S.A.). The homogenate was centrifuged at 90, 000 g for 15 minutes at 4° C., and supernatant was recovered as the total cellular protein. Cytosolic and membrane fractions of HepG2 cells were prepared using a. CNM (Cytosol Nuclear Membrane) compartment protein extraction kit (BioChain Institute Inc., Hayward, Calif., U.S.A.) according to the manufacturer's instructions. All of the fractionated protein solutions were stored at −80° C. until analysis. To measure the expression levels of proteins by drugs, the total cell protein was extracted after incubation with treatments for 24 hours and then Western blotting analysis was performed as described previously.

eNOS [4] = assay: eNOS expression in HepG2 cells; type: cell-based
Experimental: as §3

ApoA-I = ApoA-I expression in HepG2 cells; type: cell-based; settings: HepG2, 10^−9-10^−5 M
Experimental: as §3

PKA = PKA expression and immunoreactivity in HepG2 cells; type: cell-based
HSL [5] = assay: HSL immunoreactivity in HepG2 cells; type: cell-based

Cn1c(=O)c2c(ncn2CCN2CCN(c3ccccc3Cl)CC2)n(C)c1=O [KMUP-1, 7-[2-[4-(2-chlorophenyl)piperazinyl]ethyl]-1,3-dimethyl xanthine]
ABCA1 in liver (ABCA1): activated | fat globules and Mallory's hyaline bodies (H&E staining of liver) (mice fed a HFD; oral 2.5 mg/kg, last 6 weeks/14 weeks): reduced | oil globulet number and changes of oil globulet diameter in liver (mice fed a HFD; treatment and protection groups): sharply reduced | HFD-induced hepatic SR-B1 expression (SR-B1): inhibit | antibody response to MMP-9 (IHC, liver) (MMP-9): shaded by the treatment and almost disappeared in the protection group | HSL (IHC, liver) (HSL [1]): partly increased | IHC staining of eNOS in epididymal fat pads (eNOS [2]): inhibited | IHC staining of TNF-α in epididymal fat pads (TNF-α): inhibited | IHC staining of HSL in epididymal fat pads (HSL [3]): increased | mevalonate (100 μM)-inhibited HMG CoA reductase expression (HMG CoA reductase; HepG2, 10^−5M): prevented | HMG CoA reductase expression (HMG CoA reductase; HepG2, serum/vehicle-containing medium, 10^−9-10^−5M, 24 hours): concentration-dependently increased | expression of eNOS (eNOS [4]): concentration-dependently increased | ApoA-I expression (ApoA-I): concentration-dependently increased | PKA immunoreactivity (green fluorescence) (PKA): increased | oxLDL (200 μg/mL)-induced reduction of PKA expression (PKA; 1, 10, 100 μM): reversed | PKA protein expression (PKA; 10, 20, 40 µM, in the presence of LDL (500 μg/mL)): could not significantly affect | HSL immunoreactivity (green fluorescence) (HSL [5]): increased
